Laboratory results reported in PubChem BioAssay (NCI).
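Five concentrations, 48 hours, 96-well plates. GI50: concentration for 50% inhibition of growth. The concentration for full growth arrest is given as TGI.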

Key:
Assay in all cases: inhibition of tumour cell growth, NCI panel, 48 h
HT29 colon = tested on: HT29 colon
SK-MEL-2 melanoma = tested on: SK-MEL-2 melanoma
COLO 205 colon = tested on: COLO 205 colon
SK-MEL-5 melanoma = tested on: SK-MEL-5 melanoma
SN12C renal = tested on: SN12C renal
OVCAR-8 ovarian = tested on: OVCAR-8 ovarian
MCF7 breast = tested on: MCF7 breast
MDA-N = tested on: MDA-N
MDA-MB-435 = tested on: MDA-MB-435
T-47D breast = tested on: T-47D breast

| SMILES | TGI (HT29 colon) | TGI (SK-MEL-2 melanoma) | TGI (COLO 205 colon) | TGI (SK-MEL-5 melanoma) | TGI (SN12C renal) | TGI (OVCAR-8 ovarian) | TGI (MCF7 breast) | TGI (MDA-N) | TGI (MDA-MB-435) | TGI (T-47D breast) | GI50 (HT29 colon) | GI50 (SK-MEL-2 melanoma) | GI50 (COLO 205 colon) | GI50 (SK-MEL-5 melanoma) | GI50 (SN12C renal) | GI50 (OVCAR-8 ovarian) | GI50 (T-47D breast) | GI50 (MCF7 breast) | GI50 (MDA-MB-435) |
| --- | --- | --- | --- | --- | --- | --- | --- | --- | --- | --- | --- | --- | --- | --- | --- | --- | --- | --- | --- |
| CC(C)OP(=O)(OC(C)C)c1ncn(-c2ccc([N+](=O)[O-])cc2)n1 | > 100 µM | > 100 µM | > 100 µM | > 100 µM | > 100 µM | > 100 µM |  |  |  |  |  |  |  |  |  |  |  |  |  |
| CC(C)Oc1c(O)c2c3c(oc(=O)n3C=CC2c2ccccc2F)c1OC(C)C (centres undefined) | 54.1 µM | 34.5 µM | 36.6 µM | 34.2 µM | > 100 µM | > 100 µM | > 100 µM | > 100 µM | 70 µM |  |  |  |  |  |  |  |  |  |  |
| CCOc1c(OC)cc(CNNc2nccs2)cc1OC | > 100 µM |  | > 100 µM | 92.7 µM | > 100 µM | > 100 µM | > 100 µM | > 100 µM | > 100 µM | > 100 µM |  |  |  |  |  |  |  |  |  |
| CC1(C)CC(=O)C2=C(C1)OC1=C(CC(C)(C)CC1=O)C2c1ccccc1Cl (centres undefined) | > 100 µM | > 100 µM | > 100 µM | > 100 µM | > 100 µM | > 100 µM |  |  | > 100 µM | > 100 µM |  |  |  |  |  |  |  |  |  |
| O=C(CCc1nnc2s/c(=C\c3ccc(Cl)cc3Cl)c(=O)n12)Nc1cc(Cl)c(Cl)cc1Cl | > 100 µM | > 100 µM | > 100 µM | > 100 µM | > 100 µM | > 100 µM |  |  |  |  | > 100 µM | > 100 µM | > 100 µM | > 100 µM | > 100 µM | > 100 µM |  |  |  |
| Cc1cccc2ns[s+]c12 | > 100 µM |  | > 100 µM | > 100 µM | > 100 µM | > 100 µM |  |  |  |  |  |  |  |  |  |  |  |  |  |
| CC1=C2CC3=C(C)C(=O)O[C@H]3C[C@@H](C)[C@@H]2CC1 | > 100 µM | > 100 µM | > 100 µM | > 100 µM |  | > 100 µM |  |  | > 100 µM |  |  |  |  |  |  |  |  |  |  |
| COc1ccc2c(c1)CCC1C2CCC2(C)C1CC[C@@]2(O)CNC(=O)/C=C/c1ccc(O)c(O)c1 (some centres undefined) | 4.78 µM | 29.7 µM | 5.75 µM | 9.6 µM | 8.84 µM | > 100 µM | > 100 µM |  | 19.2 µM | > 100 µM | 1.93 µM | 5.59 µM | 1.81 µM | 3.41 µM | 2.57 µM | 4.13 µM | 3.15 µM | 3.66 µM | 2.86 µM |
| OB1OCc2ccccc21 | > 100 µM | > 100 µM | > 100 µM | > 100 µM | > 100 µM | > 100 µM | 82.1 µM |  | > 100 µM | > 100 µM |  |  |  |  |  |  |  |  |  |
| CC(C)(Oc1ccc(C2C[C@H]2Cl)cc1)C(=O)O (some centres undefined) |  | > 100 µM | > 100 µM | > 100 µM | > 100 µM |  | > 100 µM | > 100 µM | > 100 µM | > 100 µM |  |  |  |  |  |  |  |  |  |
| Nc1nc(NC(=O)C2=NS(=O)(=O)c3cc(S(N)(=O)=O)c(Cl)cc3N2)n[nH]1 | > 100 µM |  | > 100 µM | > 100 µM | > 100 µM |  |  |  |  |  |  |  |  |  |  |  |  |  |  |
| Clc1ccc(CCn2ccc3ccccc32)c(Cl)c1 | > 100 µM | > 100 µM | > 100 µM | > 100 µM | > 100 µM | > 100 µM | > 100 µM |  | > 100 µM |  |  |  |  |  |  |  |  |  |  |
| COc1ccccc1C1C(Cl)C(=O)N1NC(=O)Cc1ccccc1 (centres undefined) | > 100 µM | > 100 µM | > 100 µM | > 100 µM | > 100 µM | > 100 µM |  |  |  |  |  |  |  |  |  |  |  |  |  |
| COC[C@H](Cc1ccccc1)N=Cc1ccccc1 | > 100 µM | > 100 µM | > 100 µM | > 100 µM | > 100 µM | > 100 µM | > 100 µM |  | > 100 µM | > 100 µM |  |  |  |  |  |  |  |  |  |
| Cc1ccc(-n2cc(-c3ccc(Cl)cc3)c3c(NNC(=S)NCc4ccccc4)ncnc32)cc1 | 50.7 µM | 20.1 µM | 27.3 µM | 19.5 µM | 24.3 µM | 69.3 µM |  | > 100 µM | 76.1 µM | > 100 µM |  |  |  |  |  |  |  |  |  |
| CN(C)CCCn1c2c(c3ccncc3c1=O)C(=O)c1ccccc1-2 | 13.1 µM | 6.96 µM | 14.3 µM | 2.5 µM | 19.1 µM | 15.3 µM | 14 µM |  | 4.15 µM | 21 µM | 0.484 µM | 2.18 µM | 0.806 µM | 1.07 µM | 0.958 µM | 0.616 µM | 1.67 µM | 0.333 µM | 1.55 µM |
| N#Cc1ccc(/C=C2\Cc3ccccc3C2=O)cc1 | > 100 µM |  | > 100 µM | > 100 µM | > 100 µM | > 100 µM | > 100 µM | > 100 µM | > 100 µM | > 100 µM |  |  |  |  |  |  |  |  |  |
| CSc1nc(Cl)c2c(n1)Sc1ncnn1C2O (centres undefined) | 28.4 µM | 41.8 µM | 62.7 µM |  | 24 µM | 15.7 µM | 16 µM | 20.5 µM | 15.9 µM |  |  |  |  |  |  |  |  |  |  |
| COC(=O)c1cc(CNCCc2c[nH]c3ccccc23)on1 | > 100 µM | > 100 µM | > 100 µM | > 100 µM | > 100 µM | > 100 µM | > 100 µM | > 100 µM |  | > 100 µM |  |  |  |  |  |  |  |  |  |
| Cc1ccc(-c2c(C#N)c(O)n(NS(=O)(=O)c3ccccc3)c(=O)c2C#N)cc1 | > 100 µM | > 100 µM | > 100 µM | > 100 µM | > 100 µM | > 100 µM | > 100 µM |  | > 100 µM |  |  |  |  |  |  |  |  |  |  |
| CCCCCCc1cc2cc(C(=O)Nc3cccc(C(F)(F)F)c3)c(=N)oc2cc1O | > 100 µM | 5.68 µM | 21 µM | 2.45 µM | 3.86 µM | 3.72 µM | 6.47 µM |  | 5.18 µM | 1.04 µM |  |  |  |  |  |  |  |  |  |
| C[C@H]1C(=O)C2=C[C@H]1CCC(=O)[C@]1(C)CCCC(C)(C)[C@H]1C[C@H]2O | 28.6 µM | > 100 µM | 28.4 µM |  | 94.2 µM | 35 µM | 27.3 µM | > 100 µM | > 100 µM | 32.9 µM |  |  |  |  |  |  |  |  |  |
| CCCCCCCCCCCCCCCCCc1nc(C#N)c(N)o1 | > 100 µM | > 100 µM |  | > 100 µM | > 100 µM | 51.8 µM | > 100 µM | > 100 µM | > 100 µM |  |  |  |  |  |  |  |  |  |  |
